Data as given in ChEMBL document CHEMBL1201862, “PubChem BioAssay data set” (2004).
Each block holds one molecule with its values, some of them ahead of it. Calls of active or inactive are those of the source.

How the values were obtained:
NS3 = NS3 (Hepatitis C virus, UniProt A3EZJ3); test: PubChem AID 2173; design: species or system Hepacivirus hominis
[1] = molecular target: T1, Carboxy-terminal domain RNA polymerase II polypeptide A small phosphatase 1 (Homo sapiens, UniProt Q9GZU7); test: CTDSP1 inhibitors, concentration-response, biochemical, absorbance readout, ultra-high-throughput screen actives (AID 540297); format: functional
T1 sequence (Q9GZU7 whole entry): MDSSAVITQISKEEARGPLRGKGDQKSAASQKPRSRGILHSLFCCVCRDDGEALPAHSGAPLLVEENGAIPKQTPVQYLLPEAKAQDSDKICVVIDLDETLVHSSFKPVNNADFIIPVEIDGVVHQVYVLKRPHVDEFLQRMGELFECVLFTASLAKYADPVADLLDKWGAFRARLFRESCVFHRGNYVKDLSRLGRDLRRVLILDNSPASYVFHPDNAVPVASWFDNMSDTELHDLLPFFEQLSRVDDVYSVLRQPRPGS

[2] = molecular target: T2, Alkaline phosphatase, tissue-nonspecific isozyme (Homo sapiens, UniProt P05186)
T2 sequence (P05186 whole entry): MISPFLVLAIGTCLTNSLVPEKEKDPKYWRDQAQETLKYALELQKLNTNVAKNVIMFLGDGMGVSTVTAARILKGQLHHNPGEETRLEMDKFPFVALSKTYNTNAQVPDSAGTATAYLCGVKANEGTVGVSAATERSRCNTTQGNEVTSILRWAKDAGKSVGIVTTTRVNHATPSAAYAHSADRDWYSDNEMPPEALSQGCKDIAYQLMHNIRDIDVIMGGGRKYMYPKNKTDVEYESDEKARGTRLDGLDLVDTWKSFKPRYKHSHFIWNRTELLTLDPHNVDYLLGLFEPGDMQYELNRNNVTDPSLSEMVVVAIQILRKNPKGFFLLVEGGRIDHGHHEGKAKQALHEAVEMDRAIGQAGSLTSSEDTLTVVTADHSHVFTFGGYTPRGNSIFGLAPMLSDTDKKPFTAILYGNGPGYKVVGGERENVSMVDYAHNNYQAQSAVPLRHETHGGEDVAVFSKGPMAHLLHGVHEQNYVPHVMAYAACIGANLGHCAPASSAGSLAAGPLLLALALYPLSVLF

[3] = molecular target: 1-acylglycerol-3-phosphate O-acyltransferase ABHD5/Perilipin-5 (Homo sapiens, UniProt Q00G26+Q8WTS1); test: Luminescence-based biochemical high throughput dose response assay for inhibitors of the interaction of the lipase co-activator protein, abhydrolase domain containing 5 (ABHD5) with perilipin-5 (MLDP; PLIN5) (2K validation set). [Related pubchem assays (depositor defined):AID493035, AID493241]
Perilipin-1/ABHD5 = Perilipin-1/ABHD5 (Homo sapiens, UniProt O60240+Q8WTS1); test: Luminescence-based biochemical high throughput dose response assay for inhibitors of the interaction of the lipase co-activator protein, abhydrolase domain containing 5 (ABHD5) with perilipin-1 (PLIN1) (2K validation set). [Related pubchem assays (depositor defined):AID493027, AID493057]
[4] = molecular target: Neurotensin receptor type 1 (Homo sapiens, UniProt P30989); format: functional;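 further: Image-based confirmatory dose-response assay measuring agonist activity at NTR1; NTR1-expressing U2OS osteosarcoma cells imaged for beta-arrestin GFP spot formation; agonist potency where compounds increase beta-arrestin recruitment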
[5] = molecular target: Polyadenylate-binding protein 1 (Homo sapiens, UniProt P11940); test: PABP inhibition in translation initiation, SAR follow-up (AID 435018); format: functional
[6] = molecular target: Eukaryotic translation initiation factor 4H (Homo sapiens, UniProt Q15056); test: inhibitors of translation initiation factor eIF4H – SAR follow-up (AID 435011); format: functional
Streptococcus = test: GAS UMAA2166 growth inhibition – luminescence, BacTiterGlo, counter-screen for streptokinase expression inhibitor project, dose response (AID 1915); format: functional, organism-based;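 further: potency for reduction of bacterial viability or growth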
[7] = test system: Streptococcus sp. 'group A'; test: Streptococcus pyogenes SK(-)GAS viability under kanamycin – luminescence, BacTiterGlo, confirmation, counter-screen for streptokinase expression inhibitor project, dose response (AID 1900); format: functional, organism-based
[8] = CCR5-tropic HIV-1 fusion blockers – cell-based, CCR5-tropic Env, dose response (AID 2279); format: functional
Aminopeptidase N = molecular target: T3, Aminopeptidase N (Plasmodium falciparum FcB1/Columbia, UniProt O96935); test: malaria alanyl aminopeptidase activity blockers – biochemical, fluorogenic H-Leu-NHMec substrate, 1536-well (AID 1445); design: species or system Plasmodium falciparum 3D7, 3D7
T3 sequence (O96935 whole entry): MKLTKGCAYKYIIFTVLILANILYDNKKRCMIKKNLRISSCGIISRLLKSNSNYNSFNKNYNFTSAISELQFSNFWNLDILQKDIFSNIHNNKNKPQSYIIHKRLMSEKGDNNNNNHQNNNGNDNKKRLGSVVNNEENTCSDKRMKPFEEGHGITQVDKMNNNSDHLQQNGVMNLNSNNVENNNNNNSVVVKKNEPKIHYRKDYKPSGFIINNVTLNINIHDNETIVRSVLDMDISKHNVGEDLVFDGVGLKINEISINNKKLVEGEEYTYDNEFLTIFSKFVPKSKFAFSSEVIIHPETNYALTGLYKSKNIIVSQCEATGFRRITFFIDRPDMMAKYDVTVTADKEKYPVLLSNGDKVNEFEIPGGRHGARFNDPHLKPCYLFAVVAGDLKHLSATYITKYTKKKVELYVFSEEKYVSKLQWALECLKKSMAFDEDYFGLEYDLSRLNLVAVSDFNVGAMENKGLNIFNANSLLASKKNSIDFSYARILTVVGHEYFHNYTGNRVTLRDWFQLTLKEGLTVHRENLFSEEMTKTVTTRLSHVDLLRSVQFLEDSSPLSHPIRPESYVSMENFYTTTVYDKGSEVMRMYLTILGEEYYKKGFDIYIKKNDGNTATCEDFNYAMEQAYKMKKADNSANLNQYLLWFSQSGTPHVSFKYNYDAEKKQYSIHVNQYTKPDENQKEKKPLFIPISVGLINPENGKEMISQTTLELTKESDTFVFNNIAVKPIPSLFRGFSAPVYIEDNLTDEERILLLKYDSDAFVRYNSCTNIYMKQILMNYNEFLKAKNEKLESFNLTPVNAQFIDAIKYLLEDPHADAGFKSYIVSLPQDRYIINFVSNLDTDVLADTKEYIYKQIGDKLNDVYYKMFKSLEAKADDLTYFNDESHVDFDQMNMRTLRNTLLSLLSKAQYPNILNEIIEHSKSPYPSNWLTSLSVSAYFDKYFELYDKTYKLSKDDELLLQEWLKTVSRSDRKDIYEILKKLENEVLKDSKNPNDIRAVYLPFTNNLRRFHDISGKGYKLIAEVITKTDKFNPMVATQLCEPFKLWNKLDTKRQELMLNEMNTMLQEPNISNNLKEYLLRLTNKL

[9] = molecular target: Induced myeloid leukemia cell differentiation protein Mcl-1 (Homo sapiens, UniProt Q07820); format: functional
[10] = molecular target: T4, RNA-binding protein pos-1 (Caenorhabditis elegans, UniProt G5EF15); test: disruptors of C. elegans POS-1 RNA interaction – biochemical, fluorescence polarization, dose response (AID 1964);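 further: purified POS-1 fused to maltose binding protein made in E. coli; potency of compounds blocking POS-1 binding to fluorescent RNA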
T4 sequence (G5EF15 whole entry): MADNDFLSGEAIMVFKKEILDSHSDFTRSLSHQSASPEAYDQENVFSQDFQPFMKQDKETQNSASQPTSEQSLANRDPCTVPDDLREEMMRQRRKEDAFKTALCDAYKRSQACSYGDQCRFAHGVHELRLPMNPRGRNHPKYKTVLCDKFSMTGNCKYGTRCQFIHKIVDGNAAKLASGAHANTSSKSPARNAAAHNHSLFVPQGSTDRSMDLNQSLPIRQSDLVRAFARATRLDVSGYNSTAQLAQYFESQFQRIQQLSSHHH

[11] = molecular target: T5, Zinc finger protein mex-5 (Caenorhabditis elegans, UniProt Q9XUB2); test: potency of MEX-5 RNA-binding blockers – biochemical, C. elegans, fluorescence polarization, dose response (AID 1960)
T5 sequence (Q9XUB2 whole entry): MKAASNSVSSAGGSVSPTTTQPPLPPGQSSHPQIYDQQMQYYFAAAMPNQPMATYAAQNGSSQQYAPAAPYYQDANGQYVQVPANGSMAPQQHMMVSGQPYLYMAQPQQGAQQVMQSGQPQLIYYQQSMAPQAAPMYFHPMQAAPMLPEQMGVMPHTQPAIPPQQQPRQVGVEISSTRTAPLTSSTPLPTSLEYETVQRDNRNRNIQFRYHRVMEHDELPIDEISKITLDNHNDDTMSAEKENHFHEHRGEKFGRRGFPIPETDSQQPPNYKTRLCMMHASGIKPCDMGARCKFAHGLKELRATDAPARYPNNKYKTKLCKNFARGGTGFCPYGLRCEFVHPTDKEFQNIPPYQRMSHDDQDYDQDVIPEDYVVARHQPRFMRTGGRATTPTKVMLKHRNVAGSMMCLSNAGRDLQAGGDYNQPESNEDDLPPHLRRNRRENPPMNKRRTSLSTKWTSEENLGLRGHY

Chain of Perilipin-1/ABHD5 (Q8WTS1 whole entry, the tested form may be a part): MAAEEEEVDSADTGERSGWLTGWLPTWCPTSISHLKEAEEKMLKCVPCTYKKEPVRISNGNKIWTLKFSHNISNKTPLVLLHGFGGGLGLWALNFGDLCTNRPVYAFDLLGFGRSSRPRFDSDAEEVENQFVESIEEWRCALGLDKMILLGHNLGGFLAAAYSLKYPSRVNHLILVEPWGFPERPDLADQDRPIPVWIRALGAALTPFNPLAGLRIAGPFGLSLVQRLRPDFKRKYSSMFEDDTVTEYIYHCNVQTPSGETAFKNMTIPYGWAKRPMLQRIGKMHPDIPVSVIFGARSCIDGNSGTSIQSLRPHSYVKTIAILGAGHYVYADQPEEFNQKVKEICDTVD
Chain of Perilipin-1/ABHD5 (O60240 whole entry, the tested form may be a part): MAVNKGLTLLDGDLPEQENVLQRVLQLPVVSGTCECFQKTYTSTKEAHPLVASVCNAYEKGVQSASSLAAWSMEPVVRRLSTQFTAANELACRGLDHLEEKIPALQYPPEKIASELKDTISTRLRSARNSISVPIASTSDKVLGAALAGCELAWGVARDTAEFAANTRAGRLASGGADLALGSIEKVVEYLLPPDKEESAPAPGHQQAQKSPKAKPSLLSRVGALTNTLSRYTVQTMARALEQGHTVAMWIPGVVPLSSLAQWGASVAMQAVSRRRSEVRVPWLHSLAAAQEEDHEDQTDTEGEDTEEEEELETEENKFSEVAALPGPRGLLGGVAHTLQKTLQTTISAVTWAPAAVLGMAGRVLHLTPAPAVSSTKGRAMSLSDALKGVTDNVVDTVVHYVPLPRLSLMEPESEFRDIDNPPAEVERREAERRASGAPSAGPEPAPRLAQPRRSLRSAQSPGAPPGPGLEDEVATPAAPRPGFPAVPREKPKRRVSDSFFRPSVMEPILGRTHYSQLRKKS
Chain of NS3 (A3EZJ3 whole entry, the tested form may be a part): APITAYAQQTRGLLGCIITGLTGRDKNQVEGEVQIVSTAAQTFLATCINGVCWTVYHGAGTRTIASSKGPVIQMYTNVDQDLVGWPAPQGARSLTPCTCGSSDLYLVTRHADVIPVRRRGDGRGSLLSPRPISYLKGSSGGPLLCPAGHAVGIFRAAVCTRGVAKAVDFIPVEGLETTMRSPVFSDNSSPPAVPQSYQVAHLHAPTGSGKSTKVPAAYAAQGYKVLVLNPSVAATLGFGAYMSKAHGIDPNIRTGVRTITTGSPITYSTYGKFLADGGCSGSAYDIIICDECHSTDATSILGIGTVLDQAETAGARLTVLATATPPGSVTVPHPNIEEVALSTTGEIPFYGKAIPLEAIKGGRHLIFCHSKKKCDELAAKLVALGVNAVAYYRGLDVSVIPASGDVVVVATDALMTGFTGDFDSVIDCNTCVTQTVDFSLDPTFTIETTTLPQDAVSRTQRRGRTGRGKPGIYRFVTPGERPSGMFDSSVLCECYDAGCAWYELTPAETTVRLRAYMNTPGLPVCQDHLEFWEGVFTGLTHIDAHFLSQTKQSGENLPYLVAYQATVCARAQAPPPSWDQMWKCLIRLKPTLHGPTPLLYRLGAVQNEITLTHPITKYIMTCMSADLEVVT
Chain of 1-acylglycerol-3-phosphate O-acyltransferase ABHD5/Perilipin-5 (Q00G26 whole entry, the tested form may be a part): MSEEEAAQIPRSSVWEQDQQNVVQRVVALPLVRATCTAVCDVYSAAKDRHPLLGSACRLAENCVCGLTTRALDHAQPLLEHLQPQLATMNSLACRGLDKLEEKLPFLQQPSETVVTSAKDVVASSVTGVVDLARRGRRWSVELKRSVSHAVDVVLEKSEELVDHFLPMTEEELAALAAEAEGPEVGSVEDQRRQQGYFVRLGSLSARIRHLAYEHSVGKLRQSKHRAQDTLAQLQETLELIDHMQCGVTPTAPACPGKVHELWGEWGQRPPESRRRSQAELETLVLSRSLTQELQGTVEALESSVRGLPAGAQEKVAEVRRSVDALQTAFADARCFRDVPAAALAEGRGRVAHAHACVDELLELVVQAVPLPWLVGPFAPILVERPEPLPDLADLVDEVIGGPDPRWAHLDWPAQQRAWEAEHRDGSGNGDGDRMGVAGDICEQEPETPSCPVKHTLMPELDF
Chain of 1-acylglycerol-3-phosphate O-acyltransferase ABHD5/Perilipin-5 (Q8WTS1 whole entry, the tested form may be a part): as the sequence (Q8WTS1 whole entry, the tested form may be a part) above
Chain of Induced myeloid leukemia cell differentiation protein Mcl-1 (Q07820 whole entry, the tested form may be a part): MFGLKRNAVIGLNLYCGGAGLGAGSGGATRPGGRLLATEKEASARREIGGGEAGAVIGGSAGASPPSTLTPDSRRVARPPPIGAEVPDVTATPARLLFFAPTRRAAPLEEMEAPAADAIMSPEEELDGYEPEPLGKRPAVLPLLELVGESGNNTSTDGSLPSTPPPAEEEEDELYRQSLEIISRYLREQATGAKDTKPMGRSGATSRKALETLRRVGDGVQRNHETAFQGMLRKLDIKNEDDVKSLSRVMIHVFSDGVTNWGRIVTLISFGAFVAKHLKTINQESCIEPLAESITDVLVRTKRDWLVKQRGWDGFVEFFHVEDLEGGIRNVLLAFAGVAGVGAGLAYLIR
Chain of Polyadenylate-binding protein 1 (P11940 whole entry): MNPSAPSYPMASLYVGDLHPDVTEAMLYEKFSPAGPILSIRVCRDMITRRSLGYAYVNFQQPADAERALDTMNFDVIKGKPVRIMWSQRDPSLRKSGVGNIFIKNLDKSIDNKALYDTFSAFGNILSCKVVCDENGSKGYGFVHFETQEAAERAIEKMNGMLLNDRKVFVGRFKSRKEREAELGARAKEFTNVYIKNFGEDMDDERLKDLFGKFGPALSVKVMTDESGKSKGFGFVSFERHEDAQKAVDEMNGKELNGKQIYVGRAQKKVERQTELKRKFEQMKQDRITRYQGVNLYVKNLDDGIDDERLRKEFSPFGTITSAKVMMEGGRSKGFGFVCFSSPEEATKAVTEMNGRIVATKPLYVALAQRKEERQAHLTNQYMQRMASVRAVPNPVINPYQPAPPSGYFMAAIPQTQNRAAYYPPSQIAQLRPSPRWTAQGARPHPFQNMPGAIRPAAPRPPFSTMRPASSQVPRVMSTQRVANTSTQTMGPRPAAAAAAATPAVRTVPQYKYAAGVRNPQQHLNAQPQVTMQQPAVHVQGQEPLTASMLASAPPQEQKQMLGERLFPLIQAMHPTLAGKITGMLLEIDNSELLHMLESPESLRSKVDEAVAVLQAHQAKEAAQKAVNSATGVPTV
Chain of Neurotensin receptor type 1 (P30989 whole entry): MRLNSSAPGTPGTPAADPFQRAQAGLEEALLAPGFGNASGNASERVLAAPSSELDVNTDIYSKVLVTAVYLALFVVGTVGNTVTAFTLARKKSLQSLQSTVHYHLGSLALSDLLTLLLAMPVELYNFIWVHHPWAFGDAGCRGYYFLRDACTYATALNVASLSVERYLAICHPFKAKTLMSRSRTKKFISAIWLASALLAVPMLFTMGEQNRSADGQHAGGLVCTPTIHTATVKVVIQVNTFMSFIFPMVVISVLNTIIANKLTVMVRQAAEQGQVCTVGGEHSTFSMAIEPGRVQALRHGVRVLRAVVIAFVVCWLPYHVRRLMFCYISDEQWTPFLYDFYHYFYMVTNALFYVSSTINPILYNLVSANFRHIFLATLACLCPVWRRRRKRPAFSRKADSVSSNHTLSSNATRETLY

Compound: Cc1cccc(-n2c(CNC(=O)c3cccc([N+](=O)[O-])c3C)n[nH]c2=S)c1
- EC50 [2]: > 100 µM (not active)

Compound: COC(=O)c1sc(N2C(=O)C(O)=C(C(=O)c3ccc(C)o3)C2c2cc(OC)ccc2OC)nc1C (stereo not drawn)
- IC50 (NS3): 5.66 µM (active)

Compound: COc1ccc(/C=C\C(=O)c2c(O)ccc3c(C)cc(=O)oc23)cc1OC
- IC50 [3]: 8.91 µM (active)
- IC50 (Perilipin-1/ABHD5): 4.46 µM (active)

Compound: Cc1ccccc1NC(=O)C1CCN(C(=O)c2cccs2)CC1
- IC50 [5]: > 100 µM (inactive)
- IC50 [6]: > 100 µM (inactive)

Compound: O=c1cc(-c2ccccc2Cl)oc2c(NS(=O)(=O)c3cc(Cl)cc(Cl)c3O)ccc(O)c12
- EC50 (Streptococcus): 2.26 µM (active)
- EC50 [7]: 1 µM (active)
- IC50 [8]: 4.77 µM (active)
- IC50 (Aminopeptidase N): 51.6 µM (active)
- IC50 [9]: 3.4 µM (active)
- EC50 [10]: > 300 µM (not active)
- EC50 [11]: 4.54 µM (inconclusive)

The next lines start with the values.

- IC50 (NS3): 7.07 µM (active)
- IC50 [1]: 7.1 µM (active)
Compound: N#C/C(=C\c1ccc(OCc2ccc(C(=O)O)cc2)cc1)C(=O)NCc1ccccc1

- IC50 [3]: 6.97 µM (active)
- IC50 (Perilipin-1/ABHD5): 7.1 µM (active)
Compound: COc1ccc2c(c1)C=CC1(O2)N(CCO)c2ccccc2C1(C)C (stereo not drawn)

- EC50 [4]: 16.6 µM (active)
Compound: O=C1c2ccc(Cl)cc2S(=O)(=O)c2cccc(C(=O)N3CCC(Cc4ccccc4)CC3)c21
